Assay results: ChEMBL document CHEMBL1782025, “Archazolid A-15-O-β-D-glucopyranoside and iso-archazolid B: potent V-ATPase inhibitory polyketides from the myxobacteria Cystobacter violaceus and Archangium gephyra” (J Nat Prod, 2011)

Assays:
[1] = target: V-type proton ATPase subunit B (Manduca sexta, UniProt P31401); assay: Inhibition of Manduca sexta V-ATPase V1/Vo holoenzyme activity assessed as inorganic phosphate production pretreated for 5 mins
L929 = assay: Antiproliferative activity against mouse L929 cells assessed as growth inhibition after 5 days by MTT assay; format: functional; conditions: L929, 120 h
A-431 = assay: Antiproliferative activity against human A431 cells after 5 days by MTT assay; format: functional; conditions: A-431, 120 h
PC-3 = assay: Antiproliferative activity against human PC3 cells after 5 days by MTT assay; format: functional; conditions: PC-3, 120 h
[2] = Antiproliferative activity against human KB-3-1 cells after 5 days by MTT assay; format: functional; conditions: KB 3-1, 120 h
MCF7 = assay: Antiproliferative activity against human MCF7 cells after 5 days by MTT assay; format: functional; conditions: MCF7, 120 h
SK-OV-3 = assay: Antiproliferative activity against human SKOV3 cells after 5 days by MTT assay; format: functional; conditions: SK-OV-3, 120 h
U-937 = assay: Antiproliferative activity against human U937 cells after 5 days by MTT assay; format: functional; conditions: U-937, 120 h

Sequence of V-type proton ATPase subunit B (P31401 whole entry): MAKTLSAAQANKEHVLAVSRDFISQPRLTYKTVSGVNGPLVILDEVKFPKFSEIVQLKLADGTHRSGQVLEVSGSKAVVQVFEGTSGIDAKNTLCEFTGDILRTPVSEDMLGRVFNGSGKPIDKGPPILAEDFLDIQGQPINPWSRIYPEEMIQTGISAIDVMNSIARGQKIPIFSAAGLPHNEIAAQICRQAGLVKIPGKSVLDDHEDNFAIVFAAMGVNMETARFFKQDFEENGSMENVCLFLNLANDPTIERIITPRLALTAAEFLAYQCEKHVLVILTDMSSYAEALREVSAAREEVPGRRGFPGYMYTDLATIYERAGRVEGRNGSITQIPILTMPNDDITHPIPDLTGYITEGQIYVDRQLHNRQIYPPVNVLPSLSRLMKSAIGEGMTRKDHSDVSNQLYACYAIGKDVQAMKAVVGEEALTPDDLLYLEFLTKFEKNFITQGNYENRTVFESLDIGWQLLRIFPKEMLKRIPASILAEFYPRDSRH

In the case of `CNC(=O)O[C@@H](CC(C)C)c1nc([C@H]2OC(=O)/C(C)=C/C/C(C)=C/[C@@H](O[C@@H]3O[C@H](CO)[C@@H](O)[C@H](O)[C@H]3O)[C@@H](C)\C=C(CO)/C=C(C)\C=C\[C@@H](O)[C@H](C)[C@H](OC)/C(C)=C/C=C/[C@@H]2C)cs1` [ARCHAZOLID D], the IC50 [1] is reported as 1200 nmol/mg and the GI50 (L929) is reported as 330 nM.
With `CNC(=O)O[C@@H](CC(C)C)c1nc([C@H]2OC(=O)/C=C/C/C(C)=C/[C@@H](O)[C@@H](C)\C=C(C)/C=C(C)\C=C\[C@@H](O)[C@H](C)[C@H](OC)/C(C)=C/C=C/[C@@H]2C)cs1` [ARCHAZOLID B] the IC50 [1] was 0.6 nmol/mg and the GI50 (L929) was 1.1 nM.
`CNC(=O)O[C@@H](CC(C)C)c1nc([C@H]2OC(=O)/C(C)=C/C/C(C)=C/[C@@H](O)[C@@H](C)\C=C(C)/C=C(C)\C=C\[C@@H](O[C@@H]3O[C@H](CO)[C@@H](O)[C@H](O)[C@H]3O)[C@H](C)[C@H](OC)/C(C)=C/C=C/[C@@H]2C)cs1` [ARCHAZOLID E] gave a GI50 (L929) of 510 nM.
Compound `CNC(=O)O[C@@H](CC(C)C)c1nc([C@H]2OC(=O)/C(C)=C/C/C(C)=C/[C@@H](O)[C@@H](C)\C=C(C)/C=C(C)\C=C\[C@@H](O)[C@H](C)[C@H](OC)/C(C)=C/C=C/[C@@H]2C)cs1` [ARCHAZOLID A] has an IC50 [1] of 0.6 nmol/mg and a GI50 (L929) of 0.81 nM.
Compound `CNC(=O)O[C@@H](CC(C)C)c1nc([C@H]2OC(=O)C/C=C/C(C)=C/[C@@H](O)[C@@H](C)\C=C(C)/C=C(C)\C=C\[C@@H](O)[C@H](C)[C@H](OC)/C(C)=C/C=C/[C@@H]2C)cs1` [ARCHAZOLID F] has a GI50 (A-431) of 0.111 nM, an IC50 [1] of 0.7 nmol/mg and a GI50 (PC-3) of 0.053 nM. The GI50 [2] was 0.042 nM, the GI50 (MCF7) was 0.131 nM and the GI50 (L929) was 0.11 nM. For the same compound, the GI50 (SK-OV-3) was 0.043 nM and the GI50 (U-937) was 0.038 nM.
`CNC(=O)O[C@@H](CC(C)C)c1nc([C@H]2OC(=O)/C(C)=C/C/C(C)=C/[C@@H](O[C@@H]3O[C@H](CO)[C@@H](O)[C@H](O)[C@H]3O)[C@@H](C)\C=C(C)/C=C(C)\C=C\[C@@H](O)[C@H](C)[C@H](OC)/C(C)=C/C=C/[C@@H]2C)cs1` [ARCHAZOLID C] gave an IC50 [1] of 210 nmol/mg and a GI50 (L929) of 1600 nM.
